Target: T1, hERG K+ channel (Homo sapiens, UniProt Q12809)
T1 construct: expressed in transfected cells; host or cells: CHO (Chinese hamster ovary) cells, CHOhERG
Test: hERG channel inhibition assay (patch-clamp, CHOhERG cells)
Assay type: cell-based
Details: whole-cell patch-clamp; for IC20: human, CHO cells stably expressing hERG
Procedure: hERG Channel Inhibition Assay
The hERG K^+ channels were cloned in humans and stably expressed in a CHO (Chinese hamster ovary) cell line. CHOhERG cells were used for patch-clamp (voltage-clamp, whole-cell) experiments. Cells were stimulated by a voltage pattern to activate hERG channels and conduct IKhERG Currents (rapid delayed outward rectifier potassium current of the hERG channel). After the cells were stabilized for a few minutes, the amplitude and kinetics of IKhERG were recorded at a stimulation frequency of 0.1 Hz (6 bpm). Thereafter, the test compound was added to the preparation at increasing concentrations. For each concentration, an attempt was made to reach a steady-state effect, usually, this was achieved within 3-10 min at which time the next highest concentration was applied. The amplitude and kinetics of IKhERG are recorded in each concentration of the drug which were compared to the control values (taken as 100%). (references: Redfern W S, Carlsson L, Davis A S, Lynch W G, MacKenzie I, Palethorpe S, Siegl P K, Strang I, Sullivan A T, Wallis R, Camm A J, Hammond T G. 2003; Relationships between preclinical cardiac electrophysiology, clinical QT interval prolongation and torsade de pointes for a broad range of drugs: evidence for a provisional safety margin in drug development. Cardiovasc. Res. 58:32-45, Sanguinetti M C, Tristani-Firouzi M. 2006; hERG potassium channels and cardiac arrhythmia. Nature 440:463-469, Webster R, Leishman D, Walker D. 2002; Towards a drug concentration effect relationship for QT prolongation and torsades de pointes. Curr. Opin. Drug Discov. Devel. 5:116-26).

T1 sequence (Q12809 whole entry): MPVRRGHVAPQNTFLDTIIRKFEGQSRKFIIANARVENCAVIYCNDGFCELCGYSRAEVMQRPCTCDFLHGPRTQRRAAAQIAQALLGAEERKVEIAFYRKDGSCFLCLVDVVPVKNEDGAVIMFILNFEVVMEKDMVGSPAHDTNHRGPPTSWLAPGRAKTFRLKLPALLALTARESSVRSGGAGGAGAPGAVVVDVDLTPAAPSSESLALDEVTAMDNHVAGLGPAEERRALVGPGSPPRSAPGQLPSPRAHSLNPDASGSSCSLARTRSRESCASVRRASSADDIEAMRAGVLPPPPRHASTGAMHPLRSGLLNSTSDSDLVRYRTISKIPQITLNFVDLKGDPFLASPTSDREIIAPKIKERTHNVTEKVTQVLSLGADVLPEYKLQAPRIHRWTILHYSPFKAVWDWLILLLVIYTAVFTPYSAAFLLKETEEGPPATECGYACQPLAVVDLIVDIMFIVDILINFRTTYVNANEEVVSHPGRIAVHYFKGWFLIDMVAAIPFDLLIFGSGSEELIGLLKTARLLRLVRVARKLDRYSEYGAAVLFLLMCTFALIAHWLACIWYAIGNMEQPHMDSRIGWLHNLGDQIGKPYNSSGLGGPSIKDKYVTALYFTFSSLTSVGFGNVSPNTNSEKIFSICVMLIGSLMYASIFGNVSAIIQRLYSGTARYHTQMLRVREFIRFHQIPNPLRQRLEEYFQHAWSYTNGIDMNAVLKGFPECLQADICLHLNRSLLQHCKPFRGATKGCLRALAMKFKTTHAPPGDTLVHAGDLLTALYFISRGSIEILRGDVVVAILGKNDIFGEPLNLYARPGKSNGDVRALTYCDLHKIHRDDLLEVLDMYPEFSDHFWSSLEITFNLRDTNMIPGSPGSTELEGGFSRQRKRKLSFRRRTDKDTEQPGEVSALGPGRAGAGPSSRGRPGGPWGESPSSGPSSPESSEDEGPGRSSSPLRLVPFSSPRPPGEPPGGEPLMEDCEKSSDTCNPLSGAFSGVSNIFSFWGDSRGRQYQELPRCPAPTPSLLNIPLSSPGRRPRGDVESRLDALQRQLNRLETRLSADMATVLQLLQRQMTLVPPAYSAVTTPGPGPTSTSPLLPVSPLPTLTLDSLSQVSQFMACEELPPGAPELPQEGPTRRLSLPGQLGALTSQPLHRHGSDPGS

Compound	IC20 [µM]	IC50 [µM]
C[C@@H]1CN(c2ccc(C#N)c3ncccc23)C[C@@H]2Cc3cc(OC[C@@H]4CCN4)ccc3CN21 [Example 12, 5-[(4R,11aS)-9-[[(2S)-azetidin-2-yl]methoxy]-4-methyl-1,3,4,6,11,11a-hexahydropyrazino[1,2-b]isoquinolin-2-yl]quinoline-8-carbonitrile]	8.2	> 20
C[C@@H]1CN(c2ccc(C#N)c3ncccc23)C[C@@H]2Cc3cc(N4C[C@@H]5CNCCN5C4=O)ccc3CN21 (single isomer, unassigned) [Example 17A]	> 10	> 20
C[C@@H]1CN(c2ccc(C#N)c3ncccc23)C[C@@H]2Cc3cc(N[C@@H]4CNC[C@@H]4F)ccc3CN21 [Example 6, 5-[(4R,11aS)-4-methyl-9-[[(3R,4S)-4-fluoropyrrolidin-3-yl]amino]-1,3,4,6,11,11a-hexahydropyrazino[1,2-b]isoquinolin-2-yl]quinoline-8-carbonitrile]	> 10	> 20

Source: patent publication US20230002375A1, “HYDROPYRAZINO[1,2-B]ISOQUINOLINE COMPOUNDS FOR THE TREATMENT OF AUTOIMMUNE DISEASE” (Hoffmann-La Roche Inc., priority 2019, published 2023)
